What follows are compounds tested against T1, human LPA1 (Homo sapiens, UniProt Q92633) (assay: LPA1 functional antagonist assay (calcium flux)). Settings: CHO cells overexpressing human LPA1; inhibition of calcium flux induced by 10 nM LPA; read-out: hLPA1 IC50.
T1 construct: expressed in transfected cells; host or cells: Chinese hamster ovary (CHO) cells
Assay type: cell-based
In short: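 IC50 values come from 4-parameter logistic fits and mark 50% block of the calcium flux evoked by 10 nM LPA. Human LPA1-overexpressing CHO cells were calcium-dye loaded at 37 °C, then given test compound (0.08 nM–5 μM, 0.5% DMSO, HEPES-buffered HBSS with 0.1% fatty-acid-free BSA) for 20 min at room temperature before agonist.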

T1 sequence (Q92633 whole entry): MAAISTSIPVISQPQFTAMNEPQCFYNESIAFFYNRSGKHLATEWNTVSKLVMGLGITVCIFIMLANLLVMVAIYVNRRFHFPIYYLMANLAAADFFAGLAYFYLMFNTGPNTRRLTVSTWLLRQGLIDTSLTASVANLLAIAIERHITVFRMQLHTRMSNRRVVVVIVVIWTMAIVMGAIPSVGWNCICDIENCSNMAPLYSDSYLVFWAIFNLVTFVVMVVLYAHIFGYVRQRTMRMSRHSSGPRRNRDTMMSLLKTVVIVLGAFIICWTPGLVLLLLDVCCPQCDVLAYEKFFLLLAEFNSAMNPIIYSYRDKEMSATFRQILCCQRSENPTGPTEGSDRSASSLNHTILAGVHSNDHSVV

Structure (SMILES)	IC50 [nM]
CCC(C)Cc1ncnc(NCc2c(-c3ccc(O[C@H]4CCC[C@H](C(=O)O)C4)c(C)n3)nnn2C)n1 (stereo partly drawn) [Example 204, (1S,3S)-3-((2-Methyl-6-(1-methyl-5-(((4-(2-methylbutyl)-1,3,5-triazin-2-yl)amino)methyl)-1H-1,2,3-triazol-4-yl)pyridin-3-yl)oxy)cyclohexane-1-carboxylic acid]	106
CCOc1ncnc(NCc2c(-c3ccc(O[C@H]4CCC[C@H](C(=O)O)C4)c(C)n3)nnn2C)n1 [Example 208, (1S,3S)-3-((6-(5-(((4-Ethoxy-1,3,5-triazin-2-yl)amino)methyl)-1-methyl-1H-1,2,3-triazol-4-yl)-2-methyl-pyridin-3-yl)oxy)cyclohexane-1-carboxylic acid]	89
CCCCc1nc(C)nc(NCc2c(-c3ccc(O[C@H]4CCC[C@H](C(=O)O)C4)c(C)n3)nnn2C)n1 [Example 209, (1S,3S)-3-((6-(5-(((4-Butyl-6-methyl-1,3,5-triazin-2-yl)amino)methyl)-1-methyl-1H-1,2,3-triazol-4-yl)-2-methylpyridin-3-yl)oxy)cyclohexane-1-carboxylic acid]	62
Cc1nc(-c2nnn(C)c2CNc2ncnc(OC3CCC3)n2)ccc1O[C@H]1CCC[C@H](C(=O)O)C1 [Example 211, (1S,3S)-3-((6-(5-(((4-cyclobutoxy-1,3,5-triazin-2-yl)amino)methyl)-1-methyl-1H-1,2,3-triazol-4-yl)-2-methylpyridin-3-yl)oxy)cyclohexane-1-carboxylic acid]	103
CCCc1cnnc(NCc2c(-c3ccc(O[C@H]4CCC[C@H](C(=O)O)C4)c(C)n3)nnn2C)c1 [Example 212, (1S,3S)-3-((2-Methyl-6-(1-methyl-5-(((5-propylpyridazin-3-yl)amino)methyl)-1H-1,2,3-triazol-4-yl)pyridin-3-yl)oxy)cyclohexane-1-carboxylic acid]	93

Further compounds by falling IC50, results first:

IC50 [nM]	Structure (SMILES)
1260	CCCc1ncnc(NCCc2c(-c3ccc(O[C@H]4CCC[C@H](C(=O)O)C4)c(C)n3)nnn2C)n1 [Example 213, (1S,3S)-3-((2-Methyl-6-(1-methyl-5-(2-((4-propyl-1,3,5-triazin-2-yl)amino)ethyl)-1H-1,2,3-triazol-4-yl)pyridin-3-yl)oxy)cyclohexane-1-carboxylic acid]
120	Cc1nc(-c2nnn(C)c2CNc2ncnc(CCC(C)(C)C)n2)ccc1O[C@H]1CCC[C@H](C(=O)O)C1 [Example 206, (1S,3S)-3-((6-(5-(((4-(3,3-Dimethylbutyl)-1,3,5-triazin-2-yl)amino)methyl)-1-methyl-1H-1,2,3-triazol-4-yl)-2-methylpyridin-3-yl)oxy)cyclohexane-1-carboxylic acid]
102	Cc1nc(-c2nnn(C)c2CNc2ncnc(OC3CC3)n2)ccc1O[C@H]1CCC[C@H](C(=O)O)C1 [Example 210, (1S,3S)-3-((6-(5-(((4-cyclopropoxy-1,3,5-triazin-2-yl)amino)methyl)-1-methyl-1H-1,2,3-triazol-4-yl)-2-methylpyridin-3-yl)oxy)cyclohexane-1-carboxylic acid]
53	Cc1nc(-c2nnn(C)c2CNc2ncnc(C3(C)CC3)n2)ccc1O[C@H]1CCC[C@H](C(=O)O)C1 [Example 207, (1S,3S)-3-((2-Methyl-6-(1-methyl-5-(((4-(1-methylcyclopropyl)-1,3,5-triazin-2-yl)amino)methyl)-1H-1,2,3-triazol-4-yl)pyridin-3-yl)oxy) cyclohexane-1-carboxylic acid]
40	Cc1nc(-c2nnn(C)c2CNc2ncnc(CCC(C)C)n2)ccc1O[C@H]1CCC[C@H](C(=O)O)C1 [Example 205, (1S,3S)-3-((6-(5-(((4-Isopentyl-1,3,5-triazin-2-yl)amino)methyl)-1-methyl-1H-1,2,3-triazol-4-yl)-2-methyl-pyridin-3-yl)oxy)cyclohexane-1-carboxylic acid]

Source: patent US11267800B2, “Cyclohexyl acid triazole azines as LPA antagonists” (BRISTOL-MYERS SQUIBB COMPANY, priority 2017, dated 2022)
